These results are taken from patent publication US20240108595A1, “COMPOSITIONS AND METHODS FOR REVERSING AGE-ASSOCIATED DENDRITIC SPINE LOSS” (UNIVERSITY OF PITTSBURGH - OF THE COMMONWEALTH SYSTEM OF …, priority 2022, published 2024).

Data set [1] relates to mouse cerebral cortex proteome. Description: Signed Jaccard Index: overlap of amlexanox-induced protein perturbations in mice with effects of proteins on dendritic spines in humans. The format is in vivo. Conditions: amlexanox/control log2 protein abundances in mouse cerebral cortex vs effects of each protein on density of large dendritic spines in human cohort. How it is done:
then the net effect of amlexanox treatment was evaluated on proteins which, in our human data, were associated with age related dendritic spine density reductions. The Signed Jaccard Index (SJI) was calculated to estimate the net overlap of amlexanox-induced protein perturbations in mice with the effects of proteins on dendritic spines in humans. The relative log2-transformed abundances for each protein in amlexanox/control groups were compared with the effects of each protein on the density of large dendritic spines extracted from the mediation analysis from our human cohort (described in Example 1) as follows:
An SJI of 0.013 compares favorably to the mean SJI reported for all drug-disease indication pairs (absolute value=0.004), indicating it is compatible with therapeutic activity. However, the SJI of 0.013 observed was lower in magnitude than the mean SJI reported for drug-disease pairs indicated specifically for CNS disorders (absolute value=0.033).

The conditions of data set [2]: mouse, in vivo, ip, 100 mg/kg. How it is done: Drug administration and animal studies. […] A modified tolerability score was used to estimate drug tolerability. […] Male and female 15-month-old WT mice were randomly allocated to receive either 25 mg/kg amlexanox (n=9) or equivalent volume vehicle (n=10) for 5 days. Treatment groups were balanced for sex. On day 5, mice were sacrificed, perfused with normal saline, and the right cerebral cortex was isolated and immediately frozen on dry ice for proteomics.

The subject of data set [3] is Fibroblast Growth Factor Receptor 2 (FGFR2). The experiment in a line: Cerebral cortex proteomics (LC-MS) after amlexanox treatment of mice. Conditions: 15-month-old WT mice, 25 mg/kg amlexanox for 5 days, right cerebral cortex; unadjusted p value of log2 fold change=0.0012. In kind it is in vivo, mouse. Here is the method:
Drug administration and animal studies. […] Treatment groups were balanced for sex.
Sample Preparation. Tissue homogenate was obtained using a Bead Mill Fast Prep-24 (MP Biomedicals). Tissue was transferred into a Lysing Matrix D tube with 750 μl of homogenization solution (5% SDS with MS-SAFE Protease and Phosphatase Inhibitor) and homogenized at 6 m/s for 40 s. Homogenate was centrifuged at 13.2×g for 10 min, the supernatant was transferred to a microcentrifuge tube and total protein was quantified with BCA.
10 μg of protein from each subject was digested with trypsin at a ratio of 1:20 using S-trap micro columns (Protifi) and desalted using Pierce Peptide Desalting Spin Columns (ThermoFisher Scientific). […]
Peptide Data Analysis. Raw data files were analyzed with Proteome Discoverer (ThermoFisher Scientific) and searched against the mouse SwissProt database using Sequest HT (missed cleavages=2; minimum peptide length=6; precursor mass tolerance=10 ppm; dynamic modifications: Oxidation/+15.995 Da, Acetyl/+42.011 Da, Met-loss/−131.040 Da, Met-loss+Acetyl/[…]; static modifications: Carbamidomethyl/+57.021 Da). […]
Statistical Analysis. […] Proteins with a combined Q-value=0.01 or greater, not quantified in 100% of samples or with CV>0.3 in pooled controls were filtered out. […]
2860 proteins were quantified in all mice. […] Other Fibroblast Growth Factor Receptors were not quantified in our assay.

For the compound `CC(C)c1ccc2oc3nc(N)c(C(=O)O)cc3c(=O)c2c1` [amlexanox, Amlexanox], the “Signed Jaccard Index (SJI)” value in data set [1] worked out at 0.013. For the same compound, in data set [2], the modified tolerability score entry is on record as “elevated tolerability scores”. Further, the “relative abundance of FGFR2 (amlexanox/control)” value in data set [3] is recorded as 0.69.
